Laboratory results taken from patent publication US7220727B2, “Aminoglycosides as antibiotics” (priority 2000, dated 2007).

What was measured:
E. coli JM83 (APH(3′)-I) = assay: MIC, microdilution broth, E. coli hyper-expressing APH(3′)-I; format: cell-based, Escherichia coli; details: for antibiotic activity / fold lower activity than tobramycin and amikacin: E. coli hyper-expressing APH(3′)-I
Description: (§1) Escherichia coli JM83 is an antibiotic-sensitive laboratory strain. E. coli JM83 (APH(3′)-I) contains high copies (500–700 copies per cell) of plasmid pUC19 with the cloned kanamycin resistance gene from transposon Tn903 that produces the type I aminoglycoside 3′-phosphotransferase. APH(3′)-I is the most common aminoglycoside phosphotransferase in gram-negative bacteria. E. coli JM83 (AAC6′/APH2″) contains a plasmid with the gene for the bifunctional aminoglycoside-modifying enzyme AAC(6′)/APH(2″), which is produced by many cocci. The enzyme is able to phosphorylate at the 2″ position and/or acetylate at the 6′ position of various aminoglycoside antibiotics to manifest resistance for the organisms that express it. Serratia marcescens ATCC 13880, Enterobacter cloacae ATCC 3047, Pseudomonas aeruginosa 66 and C43 are representative important gram-negative pathogens. Aminoglycosides by themselves or in combination with other antibiotics are often used to combat these microorganisms, especially P. aeruginosa that is often very difficult to treat. Staphylococcus aureus 3 and Enterococcus faecium 119 are representatives of the cocci. Most of these microorganisms are intrinsically resistant to aminoglycosides (poor permeability), but in combination with β-lactam antibiotics are often used to treat infections caused by these microorganisms.
(§2) The MICs of all antibiotics, including the compounds of the present invention (i.e., the compounds of formula (I)), were determined by microdilution method broth procedure. Sequential twofold dilutions of antibiotics were performed in 100 μL of Luria-Bertani (LB) broth in sterile 96-well microtiter plates. Overnight cultures of bacteria were diluted 100 times in LB broth and subgrown for several hours and 10 μL of diluted cultures were transferred into the antibiotic containing microtiter plates to bring final inoculums to 10^5 CFU/mL (CFU stands for the colony forming units). Cultures were incubated overnight at 35° C. and microtiter plates were checked from below with a reflective viewer.

[1] = test system: E. coli JM83 (AAC6′/APH2″); assay: MIC, microdilution broth, E. coli hyper-expressing AAC(6′)/APH(2″); format: cell-based, Escherichia coli; details: for antibiotic activity: E. coli hyper-expressing AAC(6′)/APH(2″)
Description: as §1, §2

[2] = test system: Serratia marcescens ATCC 13880; assay: MIC, microdilution broth, S. marcescens; format: cell-based
Description: as §1, §2

[3] = test system: Enterobacter cloacae ATCC 3047; assay: MIC, microdilution broth, E. cloacae; format: cell-based
Description: as §1, §2

[4] = test system: Pseudomonas aeruginosa 66 and C43; assay: MIC, microdilution broth, P. aeruginosa; format: cell-based
Description: as §1, §2

[5] = test system: any of the microorganisms tested; assay: MIC, microdilution broth, whole panel of bacterial strains; format: cell-based; details: whole spectrum of strains
Description: as §1, with “Most of these microorganisms are intrinsically resistant to aminoglycosides (poor permeability), but in combination with β-lactam antibiotics are often used to treat infections caused by these microorganisms.” left out
(§3) The MICs of all antibiotics, including the compounds of the present invention (i.e., the compounds of formula (I)), were determined by microdilution method broth procedure. […]

F-AS = assay: Binding to A-site rRNA template; details: specific assay conditions; compared with compound 4 for F-AS
Staphylococcus aureus 3 = assay: MIC, microdilution broth, S. aureus; format: cell-based; details: S. aureus 3
Description: as §1, §2

Enterococcus faecium 119 = assay: MIC, microdilution broth, E. faecium; format: cell-based; details: E. faecium 119, moderately resistant to aminoglycosides
Description: as §1, with “Most of these microorganisms are intrinsically resistant to aminoglycosides (poor permeability), but in combination with β-lactam antibiotics are often used to treat infections caused by these microorganisms.” left out
as §3

Escherichia coli JM83 = assay: MIC, microdilution broth, E. coli JM83; format: cell-based; details: E. coli JM83, antibiotic-sensitive laboratory strain
Description: as §1, with “Most of these microorganisms are intrinsically resistant to aminoglycosides (poor permeability), but in combination with β-lactam antibiotics are often used to treat infections caused by these microorganisms.” left out
as §3

| Compound | antibiotic activity (E. coli JM83 (APH(3′)-I)) | antibiotic activity [1] | antibiotic activity [2] | antibiotic activity [3] | antibiotic activity [4] | binding to RNA (F-AS) | antibiotic activity (Staphylococcus aureus 3) | also measured |
| --- | --- | --- | --- | --- | --- | --- | --- | --- |
| NCCCN(CCOC1C(NC(=O)[C@@H](O)CCN)CC(N)C(O[C@H]2O[C@H](CN)[C@@H](O)[C@H](O)[C@H]2N)C1O)C(=O)[C@@H](O)CCN (stereo partly drawn) [Compound 7, 1-N,6-O-(2-N)-Bis[(S)-4-amino-2-hydroxybutanoyl]-6-O-[2-N-(3-propylamino)ethylamino]neamine] | moderate activity | moderate activity | moderate activity | moderate activity | moderate activity |  |  | MIC (E. coli JM83 (APH(3′)-I); E. coli strain producing APH(3′)-I): 64 µg/mL; MIC ([1]; E. coli strain producing AAC(6′)/APH(2″)): 32 µg/mL |
| NCCNCCOC1C(NC(=O)[C@@H](O)CCN)CC(N)C(O[C@H]2O[C@H](CN)[C@@H](O)[C@H](O)[C@H]2N)C1O (stereo partly drawn) [Compound 3, 1-N-[(S)-4-Amino-2-hydroxybutanoyl]-6-O-[2-N-(2-ethylamino)ethylamino]neamine] |  |  |  |  |  |  |  | MIC values relative to compounds 4 and 5 [5]: approximately four-fold higher |
| NCCCCNCCOC1C(NC(=O)Cc2cccc(N)c2)CC(N)C(O[C@H]2O[C@H](CN)[C@@H](O)[C@H](O)[C@H]2N)C1O (stereo partly shown) [Compound 9, 1-N-[3-Aminophenylethanoyl]-6-O-[2-N-(4-butylamino)ethylamino]neamine] |  |  |  |  |  | do bind to the RNA |  |  |
| NCCCNCCOC1C(NC(=O)[C@@H](O)CCN)CC(N)C(O[C@H]2O[C@H](CN)[C@@H](O)[C@H](O)[C@H]2N)C1O (stereo partly drawn) [Compound 4, 1-N-[(S)-4-Amino-2-hydroxybutanoyl]-6-O-[2-N-(3-propylamino)ethylamino]neamine] | good activity | good activity | excellent activities | excellent activities | excellent activities |  | good activities | fold lower activity than tobramycin and amikacin (E. coli JM83 (APH(3′)-I)): 8 fold; antibiotic activity (Enterococcus faecium 119): good activities |
| NCCCCNCCOC1C(NC(=O)Cc2ccc(N)cc2)CC(N)C(O[C@H]2O[C@H](CN)[C@@H](O)[C@H](O)[C@H]2N)C1O (stereo partly shown) [Compound 8, 1-N-[4-Aminophenylethanoyl]-6-O-[2-N-(4-butylamino)ethylamino]neamine] |  |  |  |  |  | do bind to the RNA |  |  |
| NCCCCNCCOC1C(NC(=O)[C@@H](O)CCN)CC(N)C(O[C@H]2O[C@H](CN)[C@@H](O)[C@H](O)[C@H]2N)C1O (stereo partly drawn) [Compound 5, 1-N-[(S)-4-Amino-2-hydroxybutanoyl]-6-O-[2-N-(4-butylamino)ethylamino]neamine] | good activity | good activity | excellent activities | excellent activities | excellent activities | comparable binding affinity | good activities | fold lower activity than tobramycin and amikacin (E. coli JM83 (APH(3′)-I)): 8 fold; antibiotic activity (Enterococcus faecium 119): good activities |
| 6-O-[2-N-(3-Propylamino)ethylamino]neamine [Compound 6] | not active | not active | demonstrates activity | demonstrates activity |  |  | demonstrates activity | antibiotic activity (Escherichia coli JM83): demonstrates activity; overall antibiotic activity [5]: lower activity than compound 3 |
